Assay results taken from patent US8883763B2 (Universite Joseph Fourier, priority 2010, dated 2014).

Columns and labels:
[1] = tested on: HeLa cells; test: Comparative tests with INH2BP: antiproliferative activity; format: cell-based, human; settings: 50 μM
Protocol: The cells were seeded in 96-well plates (1,000 per well) and incubated with different concentrations of compound 6 (1 nM to 100 μM), for 5 days (120 hours). At the end of this incubation, Hoechst 33342 (1 μg/ml) was added to the culture medium and the live cells were counted under a fluorescence microscope (Zeiss Axiovert 200M). The data represents the average of two independent experiments during which 10 fields chosen at random were analyzed for each concentration of compound 6, themselves produced in triplicate.

[2] = tested on: HeLa cells; test: Indirect immunofluorescence: effect on HeLa cells (mitotic arrest, microtubule depolymerization); format: cell-based, human; design: key to Effect on Hela at 25 μM / Effect on Hela at 100 μM / Effect on Hela at 50 and 100 μM / Effect on Hela at 50 μM: —: −: no activity on the cells at 25 μM (if there is an effect at high concentrations, this is specified in the table).; *: weak activity (MA and/or slight depolymerization of the MTs and/or slight inhibition of proliferation),; **: average activity (MA and/or moderate depolymerization of the MTs and/or moderate inhibition of proliferation),; ***: strong activity (MA and/or pronounced depolymerization of the MTs and/or pronounced inhibition of proliferation),; ****: very strong activity (MA and/or very pronounced depolymerization of the MTs and/or strong inhibition of proliferation); settings: 25 μM, 24 hours; mitotic index and/or depolymerization of the MTs
Method in brief: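 HeLa cells exposed 24 h to compound (100 μM to 50 nM; primary series 1–10 μM), DMSO controls. PFA/glutaraldehyde-fixed cells immunostained for α-tubulin, actin (phalloidin) and DNA (Hoechst); fluorescence microscopy scored phenotypes and mitotic index, with mitotic index and/or MT depolymerization evaluated at 25 μM.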

[3] = tested on: PP1C; test: Affinity chromatography on immobilized compound and immunoblotting; format: binding, Xenopus laevis; settings: Xenopus egg extracts; immunoblot anti-PP1C and anti-PP2A; PP2A only traces as in control
Protocol: Xenopus egg cytoplasmic extracts were prepared from unfertilized Xenopus laevis eggs according to the method described (Desai A et al., Methods Cell Biol. 1999; 61: pp 385-412).
The molecule 37 was immobilized on a sepharose resin activated by an N-hydroxysuccinimide (NHS) group (GE Healthcare #17-0906-01) as follows: 100 μg of the molecule 37 per ml of NHS Sepharose in PBS, pH 8.3, for 1 hour at ambient temperature. The sepharose coupled with molecule 37 was designated “compound 6” resin, whereas in parallel, another “control” resin was produced with incubation in 0.5 M Monoethanolamine (MEA), pH 8.3, under the same conditions, in order to neutralize the NHS functions. After several washings with PBS, pH 8.3, the NHS functions remaining free were blocked with 0.5 M MEA for 30 minutes. Once they had been thoroughly washed with PBS, the “control” and “compound 6” resins were incubated with 1 ml of Xenopus egg extracts diluted 1:1 in CSF-XB buffer containing protease inhibitors (#1 873 580 Roche®), for 1 hour under stirring at 4° C. After 2 washings with PBST, the proteins of the extract remaining attached were eluted with 100 μl of electrophoresis SDS charge buffer (Laemmli, U.K., Cleavage of structural proteins during the assembly of the head of bacteriophage T4. Nature 1970; 227, 680-685) enriched with 6M urea. […]

[4] = tested on: bovine brain tubulin; test: In vitro tubulin polymerization test (turbidimetry at 350 nm); format: biochemical; settings: molecules at 50 μM, calculated at t=3000 s, DMSO control = 100%
Method in brief: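 Bovine brain tubulin was assembled at 37 °C in BRB80 (80 mM K-PIPES pH 6.8, 1 mM MgCl2, 1 mM EGTA) with 1 mM GTP. The 50 μM tests used compounds at 50 μM, run in triplicate. Turbidity at 350 nm was read at t=3000 s and expressed relative to control taken as 100%.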

[5] = target: T1, PP1α (PP1CA) (Oryctolagus cuniculus, UniProt P62139); test: Protein phosphatase test (PP1 activity, DiFMUP fluorescent substrate); format: biochemical; settings: PP1CA at 80 mU, fluorescent substrate (50 μM), molecules from 50 μM to 50 nM; read-out: PP1 Inhibition IC50
T1 construct: purchased New England Biolabs P0754
T1 sequence (P62139 whole entry): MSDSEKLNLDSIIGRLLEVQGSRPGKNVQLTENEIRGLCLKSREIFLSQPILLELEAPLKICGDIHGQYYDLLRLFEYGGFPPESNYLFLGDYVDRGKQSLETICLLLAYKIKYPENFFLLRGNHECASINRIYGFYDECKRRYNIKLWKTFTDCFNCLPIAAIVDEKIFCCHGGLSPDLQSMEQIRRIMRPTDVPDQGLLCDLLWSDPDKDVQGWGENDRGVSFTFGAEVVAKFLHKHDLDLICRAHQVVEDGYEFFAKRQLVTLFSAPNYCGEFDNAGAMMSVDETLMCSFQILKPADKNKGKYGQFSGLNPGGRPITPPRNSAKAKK
Method in brief: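 PP1α (30 or 80 mU) in 100 mM Tris-HCl pH 7.5, 4 mM DTT, 0.2 mM EDTA, 0.5 mM MnCl2 was preincubated 15 min with compound (50 μM to 50 nM), then given 60 μM DiFMUP for 20 min at 37 °C. Phosphatase activity was read as fluorescence at 355-460 nm, three times in duplicate.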

[6] = tested on: HMEC cells; test: Proliferation of HMEC cells (GI50); format: cell-based; settings: Homo sapiens, 120 h, 50 μM to 1 nM for 5 days
Method in brief: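 Cells seeded at 1,000/well (10% confluence) and exposed 5 days (120 h) to compound from 1 nM up to 50–100 μM. Live cells counted by Hoechst 33342 staining under fluorescence microscopy; GI50 is concentration halving proliferation versus control, mean of two triplicate experiments.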

[7] = tested on: PP1 and PP2A; settings: cited from earlier work
[8] = trials discontinued; cited from earlier work
[9] = due to its structural instability; cited from earlier work

Molecule	Effect on Hela at 25 μM [2]	Tubulin polymerization inhibition [4]	IC50 [5]	GI50 [6]	selectivity for PP1 relative to PP2A [7]	also measured
Nc1ccc2oc(=O)ccc2c1I [INH2BP, 5-iodo-6-amino-1,2-benzopyrone]						antiproliferative activity on HeLa cells [1]: no antiproliferative activity
COc1ccc2c([N+](=O)[O-])c(-c3ccc(OCCOCCOCCOCCN)cc3)[nH]c(=O)c2c1 [Compound 37, 3-(4-(2-(2-(2-(2-Aminoethoxy)ethoxy)ethoxy)ethoxy)phenyl)-7-methoxy-4-nitroisoquinolin-1(2H)-one]	—	— ((−) signifies that the molecule induces little or no tubulin assembly inhibition in vitro: 0+ or − −5% of the DMSO control.)	> 50 µM	25 to 50 µM		retention of PP1C by compound immobilized on sepharose resin [3]: specifically retains PP1C
tautomycetin					40 times	
Phosphatidic acid					100 times	
C[C@@]12C(=O)OC(=O)[C@]1(C)[C@H]1CC[C@@H]2O1 [cantharidin]						toxicity in clinical trials [8]: too-high nephrotoxicity
C[C@@](O)(/C=C/[C@H]1CC=CC(=O)O1)[C@@H](C[C@@H](O)\C=C/C=C\C=C\CO)OP(=O)(O)O [fostriecin]						activity in phase I clinical trial [9]: inactive; selectivity for PP2A ([7]; PP2A relative to PP1): 40,000 times
CO[C@H]([C@H](O)CC(=O)[C@@H](C)[C@@H](O)CC[C@@H](C)[C@@H]1O[C@]2(CC[C@@H](C)[C@H](CC[C@H](C)C(C)=O)O2)CC[C@@H]1C)[C@H](OC(=O)C[C@@H](O)C1=C(C)C(=O)OC1=O)C(C)C [tautomycin]					4 times	
COc1ccc(-c2nc(OCC#N)c3cc(OC)ccc3c2[N+](=O)[O-])cc1 [Compound 31, 2-(7-Methoxy-3-(4-methoxyphenyl)-4-nitroisoquinolin-1-yloxy)ethanenitrile]	—	++ ((++) signifies that the molecule induces tubulin assembly inhibition in vitro comprised between 26 and 50% of the DMSO control.)	> 50 µM	> 50 µM		melting point: 192 to 194 °C
C#CCOc1nc(-c2ccc(OC)cc2)c([N+](=O)[O-])c2ccc(OC)cc12 [Compound 29, 7-Methoxy-3-(4-methoxyphenyl)-4-nitro-1-(prop-2ynyloxy)isoquinoline]	—	+ ((+) signifies that the molecule induces tubulin assembly inhibition in vitro comprised between 6 and 25% of the DMSO control.)	≥ 50 µM	> 50 µM		melting point: 177 to 179 °C
